Experimental data: article PMC12656268, “Venom Peptides Across Asian and American Tarantulas Utilize Dual Pharmacology to Target Activation and Fast Inactivation of Voltage-Gated Sodium Channels” (Toxins, 2025)
Positions of bridges follow the written chain, without caps; N, C: chain ends. Residues, ends and D or L forms follow the SMILES beside them.

Experiments:
NaV1.3 = NaV1.3 (Homo sapiens, UniProt Q9NY46); assay: Slowing of fast inactivation of NaV1.3; format: cell-based; settings: closed-state voltage protocol, current traces; concentrations up to those of IC50 curves
Experimental: Sodium channel currents were recorded from HEK293 cells expressing human NaV isoforms together with the β1 auxiliary subunit (SB Drug Discovery, Glasgow, UK) using the QPatch 16X automated whole-cell patch-clamp platform (Sophion Bioscience A/S, Ballerup, Denmark). The external recording solution contained (in mM) the following: 140 NaCl, 3 KCl, 1 CaCl2, 1 MgCl2, 0.1 CdCl2, 20 tetraethylammonium chloride (TEA-Cl), and 5 HEPES; pH was adjusted to 7.3 and osmolarity to 320 mOsm. The internal (pipette) solution consisted of (in mM) the following: 140 CsF, 10 NaCl, 10 HEPES, and 1/5 EGTA/CsOH, also adjusted to pH 7.3 and 320 mOsm. Cells were voltage-clamped at a holding potential of −80 mV, and inward Na^+ currents were evoked by 20 ms depolarizing pulses to 0 mV following a 200 ms hyperpolarizing prepulse to −120 mV. To obtain concentration–response curves, cells at holding potential were incubated for 5 min with increasing concentrations of Oa1a peptides. For determining the potency of Oa1a peptides to inhibit peak current, the maximum peak current within the 20 ms at 0 mV was measured. For determining the potency of Oa1a-NH2 to slow fast inactivation, peak current values were measured at 20 ms of the 0 mV depolarization step. Ion currents (INa) were plotted as I/Imax, where I = current value and Imax = highest current value within the experiment.
(§1) For calcium influx experiments, bioactivity comparisons between venom fractions and controls were based on the difference between the maximal and minimal fluorescence intensity values obtained from single-replicate assays. Electrophysiological data analysis was conducted using GraphPad Prism (version 8; GraphPad Software, San Diego, CA, USA). Nonlinear regression was applied to fit the concentration–response relationships using a variable Hill slope: log(inhibitor) versus normalized response for determining IC50 values, and log(agonist) versus normalized response for EC50 calculations. Reversibility and dissociation kinetics were analyzed by fitting data with a single-phase exponential decay model, while voltage-dependence of steady-state activation and inactivation parameters were derived from Boltzmann sigmoid fits of normalized conductance (G/Gmax) or current (I/Imax) values to determine the half-activation or half-inactivation voltages (V50). Data are expressed as mean ± SEM, where n represents the number of individual cells analyzed.

hNaV1.4 = hNaV1.4 (Homo sapiens, UniProt P35499); assay: hNaV1.4 peak current inhibition, automated whole-cell patch clamp (QPatch 16X); format: cell-based
Experimental: (§2) Unless otherwise specified, all cell culture reagents were obtained from Life Technologies (Carlsbad, CA, USA). The human neuroblastoma cell line SH-SY5Y (ATCC CRL-2266; Manassas, VA, USA) was maintained in RPMI medium supplemented with 15% fetal bovine serum (FBS) and 2 mM L-glutamine. HEK293 cells stably expressing human NaV channel isoforms together with the β1 auxiliary subunit (SB Drug Discovery, Glasgow, UK) were propagated in Minimal Essential Medium (MEM; Sigma-Aldrich, St. Louis, MO, USA) containing 10% FBS, 100 U/mL penicillin, 100 µg/mL streptomycin, 2 mM L-glutamine, and selective antibiotics (blasticidin, geneticin, and zeocin) at concentrations recommended by the supplier. […]
(§3) Sodium channel currents were recorded from HEK293 cells expressing human NaV isoforms together with the β1 auxiliary subunit (SB Drug Discovery, Glasgow, UK) using the QPatch 16X automated whole-cell patch-clamp platform (Sophion Bioscience A/S, Ballerup, Denmark). […] For determining the potency of Oa1a peptides to inhibit peak current, the maximum peak current within the 20 ms at 0 mV was measured. For determining the potency of Oa1a-NH2 to slow fast inactivation, peak current values were measured at 20 ms of the 0 mV depolarization step. […]
as §1, with “Electrophysiological data analysis was conducted using GraphPad Prism (version 8; GraphPad Software, San Diego, CA, USA). Nonlinear regression was applied to fit the concentration–response relationships using a variable Hill slope: log(inhibitor) versus normalized response for determining IC50 values, and log(agonist) versus normalized response for EC50 calculations.” left out

hNaV1.2 = hNaV1.2 (Homo sapiens, UniProt Q99250); assay: hNaV1.2 peak current inhibition, automated whole-cell patch clamp (QPatch 16X); format: cell-based
Experimental: as §2, §3
as §1, with “Electrophysiological data analysis was conducted using GraphPad Prism (version 8; GraphPad Software, San Diego, CA, USA). Nonlinear regression was applied to fit the concentration–response relationships using a variable Hill slope: log(inhibitor) versus normalized response for determining IC50 values, and log(agonist) versus normalized response for EC50 calculations.” left out

hNaV1.3 = hNaV1.3 (Homo sapiens, UniProt Q9NY46); assay: hNaV1.3 peak current inhibition, automated whole-cell patch clamp (QPatch 16X); format: cell-based
Experimental: as §2, §3
as §1, with “Electrophysiological data analysis was conducted using GraphPad Prism (version 8; GraphPad Software, San Diego, CA, USA). Nonlinear regression was applied to fit the concentration–response relationships using a variable Hill slope: log(inhibitor) versus normalized response for determining IC50 values, and log(agonist) versus normalized response for EC50 calculations.” left out

NaV1.1 = NaV1.1 (Homo sapiens, UniProt P35498); assay: Off-rate / reversibility on NaV1.1, patch clamp with saline washes; format: cell-based
Experimental: For off-rate measurements, cells at a holding potential −80 mV were incubated with peptide for 10 min at a concentration equivalent to 10 times their IC50 for the NaV subtype being analyzed, followed by saline washes. Na^+ currents were assessed every 10 s utilizing a holding potential −80 mV and currents elicited by 20 ms voltage step to 0 mV from a −120 mV conditioning pulse applied for 200 ms. Ion currents (INa) plotted as I/Imax, where I = current value and Imax = highest current value within the experiment.
as §1

hNaV1.7 = hNaV1.7 (Homo sapiens, UniProt Q15858); assay: hNaV1.7 peak current inhibition, automated whole-cell patch clamp (QPatch 16X); format: cell-based
Experimental: as §2, §3
as §1, with “Electrophysiological data analysis was conducted using GraphPad Prism (version 8; GraphPad Software, San Diego, CA, USA). Nonlinear regression was applied to fit the concentration–response relationships using a variable Hill slope: log(inhibitor) versus normalized response for determining IC50 values, and log(agonist) versus normalized response for EC50 calculations.” left out

hNaV1.1 to hNaV1.7 = assay: NaV subtype preference across NaV1.1 to NaV1.7, patch clamp; format: cell-based, human; settings: NaV1.1 to NaV1.7, closed-state voltage protocol
Experimental: Unless otherwise specified, all cell culture reagents were obtained from Life Technologies (Carlsbad, CA, USA). The human neuroblastoma cell line SH-SY5Y (ATCC CRL-2266; Manassas, VA, USA) was maintained in RPMI medium supplemented with 15% fetal bovine serum (FBS) and 2 mM L-glutamine. HEK293 cells stably expressing human NaV channel isoforms together with the β1 auxiliary subunit (SB Drug Discovery, Glasgow, UK) were propagated in Minimal Essential Medium (MEM; Sigma-Aldrich, St. Louis, MO, USA) containing 10% FBS, 100 U/mL penicillin, 100 µg/mL streptomycin, 2 mM L-glutamine, and selective antibiotics (blasticidin, geneticin, and zeocin) at concentrations recommended by the supplier. HEK293T cells expressing the human CaV3.2 channel (a generous gift from Prof. Emmanuel Bourinet, Institut de Génomique Fonctionnelle, Université de Montpellier, France, and Prof. Edward Perez-Reyes, University of Virginia School of Medicine, USA) were grown in Dulbecco’s MEM supplemented with 10% FBS, 100 U/mL penicillin, 100 µg/mL streptomycin, and 750 µg/mL geneticin.
Sodium channel currents were recorded from HEK293 cells expressing human NaV isoforms together with the β1 auxiliary subunit (SB Drug Discovery, Glasgow, UK) using the QPatch 16X automated whole-cell patch-clamp platform (Sophion Bioscience A/S, Ballerup, Denmark). The external recording solution contained (in mM) the following: 140 NaCl, 3 KCl, 1 CaCl2, 1 MgCl2, 0.1 CdCl2, 20 tetraethylammonium chloride (TEA-Cl), and 5 HEPES; pH was adjusted to 7.3 and osmolarity to 320 mOsm. The internal (pipette) solution consisted of (in mM) the following: 140 CsF, 10 NaCl, 10 HEPES, and 1/5 EGTA/CsOH, also adjusted to pH 7.3 and 320 mOsm. […] For determining the potency of Oa1a peptides to inhibit peak current, the maximum peak current within the 20 ms at 0 mV was measured. For determining the potency of Oa1a-NH2 to slow fast inactivation, peak current values were measured at 20 ms of the 0 mV depolarization step. […]
as §1, with “Electrophysiological data analysis was conducted using GraphPad Prism (version 8; GraphPad Software, San Diego, CA, USA). Nonlinear regression was applied to fit the concentration–response relationships using a variable Hill slope: log(inhibitor) versus normalized response for determining IC50 values, and log(agonist) versus normalized response for EC50 calculations.” left out

Sequence of hNaV1.7 (Q07699 19-218): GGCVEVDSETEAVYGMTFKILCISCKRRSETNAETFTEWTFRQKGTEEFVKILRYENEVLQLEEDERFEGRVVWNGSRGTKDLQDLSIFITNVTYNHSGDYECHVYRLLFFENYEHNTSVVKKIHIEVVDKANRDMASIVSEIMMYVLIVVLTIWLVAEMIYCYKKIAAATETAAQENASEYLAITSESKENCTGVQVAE
Sequence of hNaV1.7 (Q15858 whole entry): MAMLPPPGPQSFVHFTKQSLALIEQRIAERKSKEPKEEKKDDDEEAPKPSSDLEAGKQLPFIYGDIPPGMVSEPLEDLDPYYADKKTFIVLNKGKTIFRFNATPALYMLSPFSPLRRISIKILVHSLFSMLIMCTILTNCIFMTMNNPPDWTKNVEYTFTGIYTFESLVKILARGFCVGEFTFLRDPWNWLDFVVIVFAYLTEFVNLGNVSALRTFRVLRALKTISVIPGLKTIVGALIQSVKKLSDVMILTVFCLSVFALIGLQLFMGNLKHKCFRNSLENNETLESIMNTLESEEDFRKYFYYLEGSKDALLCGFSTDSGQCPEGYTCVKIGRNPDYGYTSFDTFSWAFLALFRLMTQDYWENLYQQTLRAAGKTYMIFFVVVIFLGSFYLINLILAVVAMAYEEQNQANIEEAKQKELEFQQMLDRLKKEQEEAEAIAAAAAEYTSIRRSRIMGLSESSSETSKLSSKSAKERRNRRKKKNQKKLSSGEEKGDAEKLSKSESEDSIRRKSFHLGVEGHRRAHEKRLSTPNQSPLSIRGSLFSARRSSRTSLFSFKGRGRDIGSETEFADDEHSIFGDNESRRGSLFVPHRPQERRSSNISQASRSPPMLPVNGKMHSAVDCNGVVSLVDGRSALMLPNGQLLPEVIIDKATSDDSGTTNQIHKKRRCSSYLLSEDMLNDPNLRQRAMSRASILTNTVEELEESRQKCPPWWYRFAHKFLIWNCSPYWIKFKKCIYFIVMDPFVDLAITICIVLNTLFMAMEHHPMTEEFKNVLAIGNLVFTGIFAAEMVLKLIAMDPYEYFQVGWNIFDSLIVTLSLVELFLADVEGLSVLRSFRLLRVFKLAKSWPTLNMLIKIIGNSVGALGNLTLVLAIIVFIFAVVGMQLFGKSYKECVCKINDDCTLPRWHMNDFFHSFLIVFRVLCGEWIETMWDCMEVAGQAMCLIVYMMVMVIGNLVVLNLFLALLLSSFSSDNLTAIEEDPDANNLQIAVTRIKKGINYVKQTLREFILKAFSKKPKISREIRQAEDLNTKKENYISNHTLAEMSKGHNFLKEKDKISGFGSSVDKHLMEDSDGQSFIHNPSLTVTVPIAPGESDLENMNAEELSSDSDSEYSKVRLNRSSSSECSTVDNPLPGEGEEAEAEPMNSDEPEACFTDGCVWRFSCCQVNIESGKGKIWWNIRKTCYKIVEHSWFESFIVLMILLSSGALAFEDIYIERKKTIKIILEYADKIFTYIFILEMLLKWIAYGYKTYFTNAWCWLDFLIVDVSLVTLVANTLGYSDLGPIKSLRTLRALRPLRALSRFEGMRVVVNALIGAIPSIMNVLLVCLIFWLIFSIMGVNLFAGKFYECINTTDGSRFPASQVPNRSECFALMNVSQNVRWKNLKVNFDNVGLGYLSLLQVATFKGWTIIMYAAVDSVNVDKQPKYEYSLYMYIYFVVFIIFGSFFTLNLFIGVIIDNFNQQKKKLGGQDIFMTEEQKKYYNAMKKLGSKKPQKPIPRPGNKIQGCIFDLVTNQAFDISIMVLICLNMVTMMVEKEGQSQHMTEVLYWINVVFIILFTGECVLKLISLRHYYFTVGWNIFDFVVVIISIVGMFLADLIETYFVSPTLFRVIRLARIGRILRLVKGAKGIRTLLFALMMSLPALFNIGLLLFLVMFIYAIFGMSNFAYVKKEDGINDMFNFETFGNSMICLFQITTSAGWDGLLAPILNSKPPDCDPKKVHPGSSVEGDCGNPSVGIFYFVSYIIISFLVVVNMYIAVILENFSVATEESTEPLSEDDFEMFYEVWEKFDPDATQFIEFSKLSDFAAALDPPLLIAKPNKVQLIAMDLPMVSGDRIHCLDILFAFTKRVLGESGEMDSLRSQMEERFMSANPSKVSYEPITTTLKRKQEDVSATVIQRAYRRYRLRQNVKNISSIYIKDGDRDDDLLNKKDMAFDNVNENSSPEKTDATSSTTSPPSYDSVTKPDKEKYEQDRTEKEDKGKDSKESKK
Sequence of hNaV1.2 (Q99250 whole entry): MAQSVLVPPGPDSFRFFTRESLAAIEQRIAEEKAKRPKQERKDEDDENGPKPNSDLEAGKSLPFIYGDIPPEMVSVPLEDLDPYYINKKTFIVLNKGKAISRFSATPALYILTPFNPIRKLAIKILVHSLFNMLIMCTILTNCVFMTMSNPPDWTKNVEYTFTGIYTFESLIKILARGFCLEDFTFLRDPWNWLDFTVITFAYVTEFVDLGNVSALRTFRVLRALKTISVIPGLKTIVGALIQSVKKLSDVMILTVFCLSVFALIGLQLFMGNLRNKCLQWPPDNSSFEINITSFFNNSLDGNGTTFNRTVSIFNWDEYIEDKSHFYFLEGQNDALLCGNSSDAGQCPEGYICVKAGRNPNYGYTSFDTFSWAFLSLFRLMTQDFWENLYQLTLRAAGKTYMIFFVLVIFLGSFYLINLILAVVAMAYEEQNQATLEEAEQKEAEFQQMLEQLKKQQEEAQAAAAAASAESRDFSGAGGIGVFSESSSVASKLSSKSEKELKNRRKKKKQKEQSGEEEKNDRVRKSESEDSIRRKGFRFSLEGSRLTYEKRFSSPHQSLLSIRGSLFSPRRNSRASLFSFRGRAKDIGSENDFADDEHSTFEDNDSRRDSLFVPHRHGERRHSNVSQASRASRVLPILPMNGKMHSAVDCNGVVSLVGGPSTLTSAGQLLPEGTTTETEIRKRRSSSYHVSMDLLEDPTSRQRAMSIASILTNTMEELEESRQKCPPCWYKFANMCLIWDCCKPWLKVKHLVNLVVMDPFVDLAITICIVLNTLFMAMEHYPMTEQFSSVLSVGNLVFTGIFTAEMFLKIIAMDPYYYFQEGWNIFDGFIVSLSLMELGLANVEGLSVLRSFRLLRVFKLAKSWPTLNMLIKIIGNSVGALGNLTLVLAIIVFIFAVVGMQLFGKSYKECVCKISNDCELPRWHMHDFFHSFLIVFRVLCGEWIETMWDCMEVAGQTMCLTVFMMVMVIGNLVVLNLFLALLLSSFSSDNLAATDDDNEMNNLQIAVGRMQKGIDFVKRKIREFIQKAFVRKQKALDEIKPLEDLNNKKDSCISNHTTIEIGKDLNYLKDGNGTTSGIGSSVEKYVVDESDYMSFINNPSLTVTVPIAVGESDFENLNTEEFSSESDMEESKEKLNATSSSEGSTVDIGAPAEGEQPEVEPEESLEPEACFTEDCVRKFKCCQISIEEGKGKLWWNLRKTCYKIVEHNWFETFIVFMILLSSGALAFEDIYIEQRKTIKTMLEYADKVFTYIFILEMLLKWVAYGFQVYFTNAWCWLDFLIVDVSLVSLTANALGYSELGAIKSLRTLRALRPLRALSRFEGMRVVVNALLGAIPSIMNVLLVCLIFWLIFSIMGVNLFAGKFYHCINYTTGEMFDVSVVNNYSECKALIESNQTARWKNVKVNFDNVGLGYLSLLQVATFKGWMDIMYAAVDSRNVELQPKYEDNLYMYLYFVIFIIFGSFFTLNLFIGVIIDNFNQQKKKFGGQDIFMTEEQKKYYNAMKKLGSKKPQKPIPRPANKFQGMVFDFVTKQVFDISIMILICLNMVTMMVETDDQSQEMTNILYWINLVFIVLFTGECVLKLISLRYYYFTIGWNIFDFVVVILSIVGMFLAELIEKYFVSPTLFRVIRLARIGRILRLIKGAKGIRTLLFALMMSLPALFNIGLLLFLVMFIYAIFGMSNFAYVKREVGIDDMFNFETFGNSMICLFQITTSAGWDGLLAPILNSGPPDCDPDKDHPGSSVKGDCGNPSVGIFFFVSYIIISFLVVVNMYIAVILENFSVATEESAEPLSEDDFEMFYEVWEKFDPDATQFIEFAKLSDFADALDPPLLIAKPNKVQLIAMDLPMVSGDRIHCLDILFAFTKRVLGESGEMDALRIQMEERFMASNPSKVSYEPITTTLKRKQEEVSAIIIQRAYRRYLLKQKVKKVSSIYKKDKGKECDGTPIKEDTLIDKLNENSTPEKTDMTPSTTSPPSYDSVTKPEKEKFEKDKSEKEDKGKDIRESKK
Sequence of hNaV1.2 (Q07699 19-218, further chain): as the sequence (Q07699 19-218) above

CC(C)C[C@@H]1NC(=O)[C@H](Cc2ccccc2)NC(=O)[C@H](Cc2ccc(O)cc2)NC(=O)[C@H](CCCNC(=N)N)NC(=O)[C@@H](NC(=O)[C@@H](N)CCC(=O)O)CSSC[C@@H]2NC(=O)[C@@H]3CSSC[C@@H](C(=O)N[C@H](C(=O)N[C@@H](Cc4c[nH]c5ccccc45)C(=O)N[C@@H](CC(=O)O)C(=O)N[C@@H](Cc4c[nH]c5ccccc45)C(=O)N[C@H](C(=O)N[C@@H](Cc4ccccc4)C(=O)O)[C@@H](C)O)C(C)C)NC(=O)[C@H](Cc4c[nH]c5ccccc45)NC(=O)[C@H](CCC(N)=O)NC(=O)[C@H](Cc4c[nH]cn4)NC(=O)[C@H](CCCCN)NC(=O)[C@H](CC(N)=O)NC(=O)[C@H](Cc4c[nH]cn4)NC(=O)[C@H](CSSC[C@H](NC(=O)CNC(=O)CNC1=O)C(=O)N[C@@H](CO)C(=O)N[C@@H](CCC(N)=O)C(=O)NCC(=O)N[C@@H](CCC(=O)O)C(=O)N[C@@H](CCCCN)C(=O)N3)NC(=O)[C@H](C(C)C)NC(=O)[C@H](CC(C)C)NC(=O)[C@H](Cc1c[nH]cn1)NC(=O)[C@H](CCC(=O)O)NC2=O [sOa1a-OH] (H-ECRYFLGGCSQGEKCCEHLVCHNKHQWCVWDWTF-OH; disulfide 2-16, 9-21, 15-28; N-terminus assumed)
Slowing of fast inactivation of NaV1.3 (in words) (NaV1.3): this dual modulatory activity was not observed | IC50 (hNaV1.4; HEK293 + β1, holding −80 mV, 20 ms step to 0 mV from −120 mV 200 ms prepulse, 5 min incubation, mean ± SEM, 3 to 9 independent experiments, read-out: IC50, inhibition of peak current, NaV1.4): > 3 µM | Activity on NaV1.4 (in words) (hNaV1.4; tested at up to 3 μM): no activity | IC50 (hNaV1.2; HEK293 + β1, holding −80 mV, 20 ms step to 0 mV from −120 mV 200 ms prepulse, 5 min incubation, mean ± SEM, 3 to 9 independent experiments, read-out: IC50, inhibition of peak current, NaV1.2): > 3 µM | Activity on NaV1.2 (in words) (hNaV1.2; tested at up to 3 μM): no activity | IC50 (hNaV1.3; HEK293 + β1, holding −80 mV, 20 ms step to 0 mV from −120 mV 200 ms prepulse, 5 min incubation, mean ± SEM, 3 to 9 independent experiments, read-out: IC50, inhibition of peak current, NaV1.3): > 3 µM | Activity on NaV1.3 (in words) (hNaV1.3; tested at up to 3 μM): no activity | 95% CI of off-rate (dissociation time), NaV1.1 (NaV1.1; peptide at 10× IC50 for 10 min, then saline washes, 95% CI, 3 to 5 independent repeats): Off-rate 3.56 min (95% CI = 3.35 to 3.80 min) | Reversibility on NaV1.1 by washing (NaV1.1; peptide at 10× IC50 for NaV1.1, then washing): completely reversed by washing | IC50 (hNaV1.7; HEK293 + β1, holding −80 mV, 20 ms step to 0 mV from −120 mV 200 ms prepulse, 5 min incubation, mean ± SEM, 3 to 9 independent experiments, read-out: IC50, inhibition of peak current, NaV1.7): 0.41 ± 0.023 µM | Ratio OH/NH2 (IC50 sOa1a-OH / IC50 sOa1a-NH2), NaV1.7 (hNaV1.7; ratio of IC50 values): 16 | NaV subtype preference of inhibition (in words) (hNaV1.1 to hNaV1.7): strong preference for inhibiting NaV1.1
